# Patent publication US12637432B2, “Inhibitors of ACK1/TNK2 tyrosine kinase” (H. LEE MOFFITT CANCER CENTER AND RESEARCH INSTITUTE, INC., priority 2020, dated 2026)
# Molecular target: T1, ACK1 (Homo sapiens, UniProt Q07912)
# T1 construct: purchased Reaction Biology
# Test: ACK1 IC50 (Table 1, assay not specified)
# Type: biochemical
# T1 sequence (Q07912 whole entry): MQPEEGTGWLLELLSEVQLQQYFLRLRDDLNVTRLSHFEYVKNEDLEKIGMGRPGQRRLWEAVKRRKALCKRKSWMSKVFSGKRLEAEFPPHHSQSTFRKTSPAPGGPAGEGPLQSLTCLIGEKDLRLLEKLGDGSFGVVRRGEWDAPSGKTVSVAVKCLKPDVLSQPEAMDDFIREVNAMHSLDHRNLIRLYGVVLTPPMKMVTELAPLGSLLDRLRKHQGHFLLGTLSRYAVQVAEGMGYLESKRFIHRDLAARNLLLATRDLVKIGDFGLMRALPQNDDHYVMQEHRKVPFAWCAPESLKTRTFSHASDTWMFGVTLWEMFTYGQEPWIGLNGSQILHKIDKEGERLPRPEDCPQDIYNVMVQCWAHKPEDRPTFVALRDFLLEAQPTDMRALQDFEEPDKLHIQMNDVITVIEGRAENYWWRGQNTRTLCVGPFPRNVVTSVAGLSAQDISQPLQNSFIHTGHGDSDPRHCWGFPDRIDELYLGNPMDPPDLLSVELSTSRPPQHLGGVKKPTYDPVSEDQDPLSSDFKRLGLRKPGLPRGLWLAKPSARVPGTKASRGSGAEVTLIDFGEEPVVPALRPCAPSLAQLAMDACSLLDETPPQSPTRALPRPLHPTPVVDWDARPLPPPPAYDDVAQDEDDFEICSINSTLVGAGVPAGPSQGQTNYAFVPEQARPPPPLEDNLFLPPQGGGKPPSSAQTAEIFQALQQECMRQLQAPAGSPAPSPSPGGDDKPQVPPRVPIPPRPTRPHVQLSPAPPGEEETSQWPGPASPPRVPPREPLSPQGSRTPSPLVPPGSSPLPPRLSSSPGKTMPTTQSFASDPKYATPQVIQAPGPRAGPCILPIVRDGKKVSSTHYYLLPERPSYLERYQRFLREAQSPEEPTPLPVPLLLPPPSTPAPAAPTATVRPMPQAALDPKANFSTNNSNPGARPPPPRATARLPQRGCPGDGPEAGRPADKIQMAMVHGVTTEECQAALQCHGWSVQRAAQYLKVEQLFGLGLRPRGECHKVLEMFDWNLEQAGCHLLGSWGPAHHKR
row,Compound,IC50
1,OCCn1cc(-c2ccc(Nc3ncc(Cl)c(NC[C@H]4CCCO4)n3)cc2F)cn1 [(R)-2-(4-(4-((5-chloro-4-(((tetrahydrofuran-2-yl)methyl)amino)pyrimidin-2-yl)amino)-2-fluorophenyl)-1H-pyrazol-1-yl)ethan-1-ol],46.1 nM
2,"COCCn1cc(-c2ccc(Nc3ncc(Cl)c(NC[C@H]4CCCO4)n3)cc2F)cn1 [(R)-5-chloro-N^2-(3-fluoro-4-(1-(2-methoxyethyl)-1H-pyrazol-4-yl)phenyl)-N^4-((tetrahydrofuran-2-yl)methyl)pyrimidine-2,4-diamine]",137 nM
3,"Fc1cc(Nc2ncc(Cl)c(NC[C@H]3CCCO3)n2)ccc1-c1cnn(C2CCOCC2)c1 [(R)-5-chloro-N^2-(3-fluoro-4-(1-(tetrahydro-2H-pyran-4-yl)-1H-pyrazol-4-yl)phenyl)-N^4-((tetrahydrofuran-2-yl)methyl)pyrimidine-2,4-diamine]",78.7 nM

# Continued, values first:
row,IC50,Compound
1,60.1 nM,"Fc1cc(Nc2ncc(Cl)c(NC[C@H]3CCCO3)n2)ccc1OCCN1CCCC1 [(R)-5-chloro-N^2-(3-fluoro-4-(2-(pyrrolidin-1-yl)ethoxy)phenyl)-N^4-((tetrahydrofuran-2-yl)methyl)pyrimidine-2,4-diamine]"
2,56.5 nM,"Clc1cnc(Nc2ccc(OCCN3CCCC3)cc2)nc1NC[C@H]1CCCO1 [(R)-5-chloro-N^2-(4-(2-(pyrrolidin-1-yl)ethoxy)phenyl)-N^4-((tetrahydrofuran-2-yl)methyl)pyrimidine-2,4-diamine]"

# Molecular target: T1, ACK1
# Test: Reaction Biology 33P Hotspot assay
# Type: biochemical
row,Compound,IC50
1,CN1CCN(c2ccc(Nc3ncc(Cl)c(NCC4CCOCC4)n3)c(O)c2)CC1 [2-((5-chloro-4-(((tetrahydro-2H-pyran-4-yl)methyl)amino)pyrimidin-2-yl)amino)-5-(4-methylpiperazin-1-yl)phenol],55.3 nM
2,"CN1CCC(n2cc(Nc3ncc(Cl)c(NCC4CCOCC4)n3)cn2)CC1 [5-chloro-N^2-(1-(1-methylpiperidin-4-yl)-1H-pyrazol-4-yl)-N^4-((tetrahydro-2H-pyran-4-yl)methyl)pyrimidine-2,4-diamine]",138 nM
3,"Clc1cnc(Nc2cnn(C3CCOCC3)c2)nc1NCC1CCOCC1 [5-chloro-N^2-(1-(tetrahydro-2H-pyran-4-yl)-1H-pyrazol-4-yl)-N^4-((tetrahydro-2H-pyran-4-yl)methyl)pyrimidine-2,4-diamine]",90 nM
4,"Cn1cc(Nc2ncc(Cl)c(NCC3CCOCC3)n2)cn1 [5-chloro-N^2-(1-methyl-1H-pyrazol-4-yl)-N^4-((tetrahydro-2H-pyran-4-yl)methyl)pyrimidine-2,4-diamine]",84 nM
5,"CC(C)Oc1cc(-c2cnn(C)c2)ccc1Nc1ncc(Cl)c(NCC2CCOCC2)n1 [5-chloro-N^2-(2-isopropoxy-4-(1-methyl-1H-pyrazol-4-yl)phenyl)-N^4-((tetrahydro-2H-pyran-4-yl)methyl)pyrimidine-2,4-diamine]",232 nM
6,"COc1cc(-c2cnn(C)c2)ccc1Nc1ncc(Cl)c(NCC2CCOCC2)n1 [5-chloro-N^2-(2-methoxy-4-(1-methyl-1H-pyrazol-4-yl)phenyl)-N^4-((tetrahydro-2H-pyran-4-yl)methyl)pyrimidine-2,4-diamine]",38.1 nM
7,"COc1cc(-n2cccn2)ccc1Nc1ncc(Cl)c(NCC2CCOCC2)n1 [5-chloro-N^2-(2-methoxy-4-(1H-pyrazol-1-yl)phenyl)-N^4-((tetrahydro-2H-pyran-4-yl)methyl)pyrimidine-2,4-diamine]",34.9 nM
8,"Cn1cc(-c2ccc(Nc3ncc(Cl)c(NCC4CCOCC4)n3)cc2F)cn1 [5-chloro-N^2-(3-fluoro-4-(1-methyl-1H-pyrazol-4-yl)phenyl)-N^4-((tetrahydro-2H-pyran-4-yl)methyl)pyrimidine-2,4-diamine]",31 nM
9,"CC(C)Oc1cc(Nc2ncc(Cl)c(NCC3CCOCC3)n2)ccc1-c1cnn(C)c1 [5-chloro-N^2-(3-isopropoxy-4-(1-methyl-1H-pyrazol-4-yl)phenyl)-N^4-((tetrahydro-2H-pyran-4-yl)methyl)pyrimidine-2,4-diamine]",23.6 nM
10,"COc1cc(Nc2ncc(Cl)c(NCC3CCOCC3)n2)ccc1-c1cnn(C)c1 [5-chloro-N^2-(3-methoxy-4-(1-methyl-1H-pyrazol-4-yl)phenyl)-N^4-((tetrahydro-2H-pyran-4-yl)methyl)pyrimidine-2,4-diamine]",27.6 nM
11,"CN1CCN(Cc2ccc(Nc3ncc(Cl)c(NCC4CCOCC4)n3)cc2)CC1 [5-chloro-N^2-(4-((4-methylpiperazin-1-yl)methyl)phenyl)-N^4-((tetrahydro-2H-pyran-4-yl)methyl)pyrimidine-2,4-diamine]",69.1 nM
12,"Clc1cnc(Nc2ccc(OCC3CCOCC3)cc2)nc1NCC1CCOCC1 [5-chloro-N^2-(4-((tetrahydro-2H-pyran-4-yl)methoxy)phenyl)-N^4-((tetrahydro-2H-pyran-4-yl)methyl)pyrimidine-2,4-diamine]",46 nM
13,"COc1cc(-n2cccn2)ccc1Nc1ncc(Cl)c(NC[C@H]2CCCO2)n1 [(R)-5-chloro-N^2-(2-methoxy-4-(1H-pyrazol-1-yl)phenyl)-N^4-((tetrahydrofuran-2-yl)methyl)pyrimidine-2,4-diamine]",64.6 nM
14,"Cc1cnc(Nc2cc(F)c(C3CCN(C)CC3)c(F)c2)nc1Nc1ccc(Cl)c(OCC(C)C)c1 [N^4-(4-chloro-3-isobutoxyphenyl)-N^2-(3,5-difluoro-4-(1-methylpiperidin-4-yl)phenyl)-5-methylpyrimidine-2,4-diamine]",181 nM

# Now from value to molecule:
row,IC50,Compound
1,40.8 nM,"CC(C)Oc1cc(Nc2ncc(Cl)c(N[C@H](C)C3CCOCC3)n2)ccc1C1CCN(C)CC1 [(R)-5-chloro-N^2-(3-isopropoxy-4-(1-methylpiperidin-4-yl)phenyl)-N^4-(1-(tetrahydro-2H-pyran-4-yl)ethyl)pyrimidine-2,4-diamine]"
2,352 nM,"CC[C@@H](Nc1nc(Nc2ccc(C3CCN(C)CC3)c(OC(C)C)c2)ncc1Cl)C1CCOCC1 [(R)-5-chloro-N^2-(3-isopropoxy-4-(1-methylpiperidin-4-yl)phenyl)-N^4-(1-(tetrahydro-2H-pyran-4-yl)propyl)pyrimidine-2,4-diamine]"
3,37 nM,"CC(C)Oc1cc(Nc2ncc(Cl)c(N[C@H](C)C3CCOCC3)n2)ccc1N1CCN(C)CC1 [(R)-5-chloro-N^2-(3-isopropoxy-4-(4-methylpiperazin-1-yl)phenyl)-N^4-(1-(tetrahydro-2H-pyran-4-yl)ethyl)pyrimidine-2,4-diamine]"
4,40.4 nM,"COc1cc(Nc2ncc(Cl)c(NC[C@H]3CCCO3)n2)ccc1-c1cnn(C)c1 [(R)-5-chloro-N^2-(3-methoxy-4-(1-methyl-1H-pyrazol-4-yl)phenyl)-N^4-((tetrahydrofuran-2-yl)methyl)pyrimidine-2,4-diamine]"
5,128 nM,"Cn1cc(-c2ccc(Nc3ncc(Cl)c(NC[C@H]4CCCO4)n3)cc2)cn1 [(R)-5-chloro-N^2-(4-(1-methyl-1H-pyrazol-4-yl)phenyl)-N^4-((tetrahydrofuran-2-yl)methyl)pyrimidine-2,4-diamine]"
6,69 nM,"Clc1cnc(Nc2ccc(OCC3CCOCC3)cc2)nc1NC[C@H]1CCCO1 [(R)-5-chloro-N^2-(4-((tetrahydro-2H-pyran-4-yl)methoxy)phenyl)-N^4-((tetrahydrofuran-2-yl)methyl)pyrimidine-2,4-diamine]"
7,34.5 nM,"COc1cc(N2CCN(C)CC2)ccc1Nc1ncc(C)c(NCC2CCOCC2)n1 [N^2-(2-methoxy-4-(4-methylpiperazin-1-yl)phenyl)-5-methyl-N^4-((tetrahydro-2H-pyran-4-yl)methyl)pyrimidine-2,4-diamine]"
8,14.7 nM,"COc1cc(N2CCN(C)CC2)c(F)cc1Nc1ncc(C)c(NCC2CCOCC2)n1 [N^2-(5-fluoro-2-methoxy-4-(4-methylpiperazin-1-yl)phenyl)-5-methyl-N^4-((tetrahydro-2H-pyran-4-yl)methyl)pyrimidine-2,4-diamine]"

# Molecular target: T1, ACK1
# Test: ACK1 ELISA % inhibition at 100 nM
# Type: biochemical
row,Compound,inhibition at 0.1 µM
1,"COc1cc(N2CCN(C)CC2)ccc1Nc1ncc(Cl)c(NCc2ccc(C(F)(F)F)cc2)n1 [5-chloro-N^2-(2-methoxy-4-(4-methylpiperazin-1-yl)phenyl)-N^4-(4-(trifluoromethyl)benzyl)pyrimidine-2,4-diamine]",31.1%
2,"COc1cc(N2CCN(C)CC2)ccc1Nc1ncc(Cl)c(N(CCc2ccccc2)CC2CCCO2)n1 (stereo not shown) [5-chloro-N^2-(2-methoxy-4-(4-methylpiperazin-1-yl)phenyl)-N^4-phenethyl-N^4-((tetrahydrofuran-2-yl)methyl)pyrimidine-2,4-diamine]",38.5%
3,"CN1CCN(c2ccc(Nc3ncc(Cl)c(N(CCc4ccccc4)CC4CCCO4)n3)cc2)CC1 (stereo not shown) [5-chloro-N^2-(4-(4-methylpiperazin-1-yl)phenyl)-N^4-phenethyl-N^4-((tetrahydrofuran-2-yl)methyl)pyrimidine-2,4-diamine]",32%

# Next, values leading:
row,inhibition at 0.1 µM,Compound
1,50.2%,"COc1cc(N2CCN(C)CC2)ccc1Nc1ncc(Cl)c(N[C@H](C)c2ccc(Cl)cc2)n1 [(R)-5-chloro-N^4-(1-(4-chlorophenyl)ethyl)-N^2-(2-methoxy-4-(4-methylpiperazin-1-yl)phenyl)pyrimidine-2,4-diamine]"
2,17.5%,"COc1cc(N2CCN(C)CC2)ccc1Nc1ncc(Cl)c(N[C@@H](C)c2ccc(Cl)cc2)n1 [(S)-5-chloro-N^4-(1-(4-chlorophenyl)ethyl)-N^2-(2-methoxy-4-(4-methylpiperazin-1-yl)phenyl)pyrimidine-2,4-diamine]"
3,98.7%,COc1cc(N2CCN(C)CC2)ccc1Nc1ncc(C)c(Nc2ccc(Cl)c(NS(=O)(=O)C(C)(C)C)c2)n1 [N-(2-chloro-5-((2-((2-methoxy-4-(4-methylpiperazin-1-yl)phenyl)amino)-5-methylpyrimidin-4-yl)amino)phenyl)-2-methylpropane-2-sulfonamide]
4,100%,COc1cc(N2CCN(C)CC2)ccc1Nc1ncc(C)c(Nc2cccc(NS(=O)(=O)C(C)(C)C)c2)n1 [N-(3-((2-((2-methoxy-4-(4-methylpiperazin-1-yl)phenyl)amino)-5-methylpyrimidin-4-yl)amino)phenyl)-2-methylpropane-2-sulfonamide]
